Data reported in paper PMC11251039, “Harnessing cholesterol uptake of malaria parasites for therapeutic applications” (EMBO Molecular Medicine, 2024).
Where “and” joins values, the source holds several entries; their conditions need not be identical. Equal entries are not always repeated.

Tests used:
[1] = system: P. falciparum stage V gametocytes; assay: P. falciparum gametocyte viability assay (MitoTracker, flow cytometry), stage V; type: cell-based, Plasmodium falciparum; details: 48 h; for Gametocyte stage V viability, percentage of control: replicate values, source data Fig. 2D
Procedure, shortened: (§1)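 Magnetically enriched gametocytes, stage III-IV (day 7) or stage V (day 10), were exposed to serially diluted compounds in medium with 50 mM N-acetyl-D-glucosamine for 48 hours at 37 °C, microaerophilic. Staining with 500 nM MitoTracker Deep Red FM and Hoechst, then flow cytometry, gave percentage live versus dead gametocytes.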

P. berghei liver stages = assay: Plasmodium berghei liver stage growth inhibition assay (luminescence, in Huh7 cells); details: for P. berghei liver stage growth, dose-response data points (Figure 3A): replicate data points; for P. berghei liver stage growth, dose-response data points (Figure 3A) / Figure 3E dose-response value (replicates): listed as HJB8a53
Description: Growth inhibition or cell viability were assessed by incubation with a serial dilution of test compounds, solvent controls (DMSO, ethanol, ethyl acetate), or culture media alone in 96-well plates, with detection of fluorescence, luminescence, or absorbance in microplate readers after 24–96 h unless otherwise specified.
Huh7 cells were seeded at a density of 10,000 cells per well of a 96-well plate, or 20,000 cells per collagen-coated coverslip. After 24 h, test compounds were added the wells were inoculated with P. berghei liver stage sporozoites dissected from infected A. stephensi salivary glands with 5000–10,000 sporozoites per well or 10,000–20,000 sporozoites per coverslip. Uninfected wells served as a control for background luminescence. Luminescence signal was measured 48 h post-invasion by addition of 1:1 ONE-Glo^TM substrate (Promega) with a luminescence microplate reader. Coverslips were fixed, stained, and imaged, with all parasites on each coverslip imaged and delineated as described (Petersen et al, [2017]) using Fiji ImageJ (Schindelin et al, [2012]). Data are presented as a percentage of the size or parasite number of the solvent control to normalize for differences between experiments.
Growth inhibition data were normalised by subtracting background fluorescence, luminescence, absorbance, or percentage of cells from a no-growth or no-viability control (high drug concentration, no-parasite control, or time = 0 measurement as specified), and expressed as a percentage of the growth or cell percentage in the negative control (culture media alone or solvent control) at the indicated timepoint (or to the highest measurement reached during the assay for Fig. EV3).
Plasmodium berghei ANKA Bergreen (22) or GFP-Luc (RMgm-29) (23), respectively
expressing green fluorescent protein (GFP) or a GFP-Luciferase fusion protein, were
maintained under routine conditions in SWR/J Mus musculus mice and Anopheles stephensi
Growth inhibition of P. berghei liver-stages was investigated after infection of human
hepatoma cells (Huh7) and subsequent growth for 48 hours at 37° C, 5% CO2 and 80%
humidity. The day prior to infection, 10,000 Huh7 cells were seeded in dark-sided 96-well
microplates (Greiner Bio One). On the day of infection, compounds or solvent controls
(DMSO) were serially diluted in culture media and 5,000 – 10,000 Bergreen or GFP-Luc
sporozoites were added per well following dissection from infected A. stephensi salivary
glands. Uninfected wells served as control for background luminescence. To promote invasion,
the plates were centrifuged at 1,550 g for 5 minutes. After 60 minutes, the media was
completely replaced with fresh, prewarmed media with the matching drug concentrations.
Media was partially replaced with new drug dilutions over the following two days. 48 hours
post-infection, luminescence signal was measured by addition of 1:1 ONE-GloTM substrate
(Promega) to the wells, followed by detection at 300 – 700 nm using a Synergy HTX plate

[2] = system: P. falciparum stage III–IV gametocytes; assay: P. falciparum gametocyte viability assay (MitoTracker, flow cytometry), stage III-IV; type: cell-based, Plasmodium falciparum; details: 48 h; for Gametocyte stage III-IV viability, percentage of control: replicate values, source data Fig. 2C
Procedure, shortened: as §1

[3] = system: human hepatoma cells (Huh7); assay: Human hepatoma viability assay (CellTiter-Blue); type: cell-based; details: for Huh7 viability, dose-response data points (Figure 3F): replicate data points
Procedure, shortened: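 Huh7 cells (10,000/well) were seeded and treated the next day with serially diluted compound or DMSO, with media partially renewed with fresh dilutions over two days.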

[4] = 1.562500000 uM, listed as HJB8a53, 1.5625 µM
[5] = 50.000000000 uM, listed as HJB8a53, 50 µM
[6] = 100.000000000 uM, listed as HJB8a53, 100 µM

CC(C)OC(=O)CCC(=O)O[C@H]1CC[C@H]2[C@@H]3CC=C4C[C@@H](O)CC[C@]4(C)[C@H]3CC[C@]12C [C-17-link]
Gametocyte stage V viability, percentage of control [1, 4]: 100.2% and 98.56% and 92.55% and 112.8% and 114.5% and 98.06% and 102.7% and 106.9% and 101% | Gametocyte stage V viability, percentage of control [1, 5]: 69.57% and 81.64% and 85.27% | Gametocyte stage V viability, percentage of control [1, 6]: 29.13% and 28.63% and 16.49% and 6.64% and 5.637% and 3.021% and 27.44% and 23.3% and 20.39% | viability at 6.25 µM ([1]; Plasmodium falciparum, read-out: Gametocyte stage V viability, percentage of control, 6.250000000 uM, 48 h, replicate values, source data Fig. 2D): 102% | viability at 12.5 µM ([1]; Plasmodium falciparum, read-out: Gametocyte stage V viability, percentage of control, 12.500000000 uM, 48 h, replicate values, source data Fig. 2D): 96.4% | IC50 ([1]; Plasmodium falciparum, read-out: IC50, P. falciparum gametocyte stage V inhibition): 69.9 µM | P. berghei liver stage growth, dose-response data points (Figure 3A) (P. berghei liver stages; 0.015241580 uM): 96.98 and 119.7 and 83.36 and 88.47 and 108.4 and 103.1 and 97.22 and 85.28 and 117.5 | P. berghei liver stage growth, dose-response data points (Figure 3A) (P. berghei liver stages; 0.045724740 uM): 121.9 and 106 and 104.9 and 85.8 and 115.6 and 102.5 and 72.1 and 100.2 and 87.82 | P. berghei liver stage growth, dose-response data points (Figure 3A) (P. berghei liver stages; 0.137174210 uM): 107.2 and 102.6 and 90.17 and 92.54 and 104.7 and 117.6 and 63.06 and 70.96 and 103.2 | Figure 3E dose-response value (replicates) (P. berghei liver stages; 0.292968750 uM): 91.07 and 89.1 and 95.27 and 90.14 | P. berghei liver stage growth, dose-response data points (Figure 3A) (P. berghei liver stages; 0.411522630 uM): 124.2 and 100.4 and 115.1 and 111.4 and 113.3 and 113.5 and 80.27 and 84.75 and 95.46 | Figure 3E dose-response value (replicates) (P. berghei liver stages; 0.585937500 uM): 99.86 and 89.88 and 84.85 and 85.63 and 89.93 and 92.67 and 90.44 and 102.5 and 92 and 98.72 and 111.5 and 102.9 | Figure 3E dose-response value (replicates) (P. berghei liver stages; 1.171875000 uM): 96.5 and 101.8 and 91.15 and 89.59 and 89.72 and 89.39 and 88.5 and 90.85 and 89.8 and 102.1 and 102.3 and 93.29 | P. berghei liver stage growth, dose-response data points (Figure 3A) (P. berghei liver stages; 1.234567900 uM): 118.5 and 135.5 and 116.3 and 100.4 and 96.61 and 100.7 and 64.72 and 81.15 and 106.8 | Figure 3E dose-response value (replicates) (P. berghei liver stages; 2.343750000 uM): 99.05 and 88.35 and 98.38 and 79.46 and 78.82 and 91.42 and 85.51 and 85.36 and 86.3 and 87.79 and 95.63 and 94.28 | P. berghei liver stage growth, dose-response data points (Figure 3A) (P. berghei liver stages; 3.703703700 uM): 114 and 106 (2×) and 125.3 and 90.63 and 118.1 and 93.53 and 101.3 and 118.6 | Figure 3E dose-response value (replicates) (P. berghei liver stages; 4.687500000 uM): 81 and 89.1 and 99.07 and 91.89 and 81.35 and 88.41 and 75.07 and 84.23 and 79.29 and 90.54 and 102.2 and 92.05 | Figure 3E dose-response value (replicates) (P. berghei liver stages; 9.375000000 uM): 89.91 and 74.54 and 79.38 and 86.26 and 88.67 and 93.48 and 71.57 and 72.81 and 73.33 and 83.01 and 90.9 and 81.08 | P. berghei liver stage growth, dose-response data points (Figure 3A) (P. berghei liver stages; 11.111111100 uM): 92.44 and 108.3 and 77.69 and 72.06 and 110.1 and 86.05 and 62.44 and 84.4 and 99.5 | Figure 3E dose-response value (replicates) (P. berghei liver stages; 18.750000000 uM): 68.62 and 75.11 and 71.21 and 83.74 and 80.37 and 86.75 and 49.64 and 47.74 and 45.02 and 68.49 and 77.9 and 71.84 | P. berghei liver stage growth, dose-response data points (Figure 3A) (P. berghei liver stages; 33.333333300 uM): 25.52 and 39.13 and 33.46 and 43.83 and 48.03 and 60.49 and 20.73 and 60.95 and 57.96 | Figure 3E dose-response value (replicates) (P. berghei liver stages; 37.500000000 uM): 25.13 and 30.9 and 15.88 and 48.26 and 43.84 and 49.75 and 11.26 and 13.01 and 10.8 and 38.05 and 39.89 and 41.67 | Figure 3E dose-response value (replicates) (P. berghei liver stages; 75.000000000 uM): 2.196 and 1.744 and 3.137 and 1.33 and 2.981 and 3.396 and -0.3545 and -0.4946 and 0.272 and 5.931 and 5.012 and 6.082 | P. berghei liver stage growth, dose-response data points (Figure 3A) (P. berghei liver stages; 100.000000000 uM): -0.5671 and 0.5671 and -2.836 and -0.2967 and -0.1696 and 0.5935 and 0.3513 and 0.08782 and 0.4391 | IC50 (P. berghei liver stages; Plasmodium berghei, Huh-7, 48 h, read-out: IC50, P. berghei liver stage growth inhibition): 29.2 µM | Gametocyte stage III-IV viability, percentage of control [2, 4]: 101% and 107% and 102.8% and 99.18% (2×) and 99.4% and 102.9% and 101.9% and 93.96% and 97.92% and 98.49% | Gametocyte stage III-IV viability, percentage of control ([2]; 3.125000000 uM, listed as HJB8a53, 3.125 µM): 105.6% and 102% and 105.7% and 98.51% and 101.4% and 101.9% (2×) and 99.18% and 90.27% and 91.12% and 94.52% | Gametocyte stage III-IV viability, percentage of control ([2]; 6.250000000 uM, listed as HJB8a53, 6.25 µM): 99.6% and 103.8% and 106.8% and 101.2% and 104.3% and 103.3% and 101% and 100.8% and 93.96% and 96.79% and 98.77% | Gametocyte stage III-IV viability, percentage of control ([2]; 12.500000000 uM, listed as HJB8a53, 12.5 µM): 107.8% and 104% and 107.2% and 101.4% and 104.1% (2×) and 102.9% and 101% and 94.24% and 97.07% and 99.62% | Gametocyte stage III-IV viability, percentage of control ([2]; 25.000000000 uM, listed as HJB8a53, 25 µM): 98.8% and 98.2% and 107.2% and 103.9% and 105.9% and 102.5% and 102.3% and 103.5% and 88.86% and 88.57% and 89.42% | Gametocyte stage III-IV viability, percentage of control [2, 5]: 91.61% and 97.2% and 99.4% and 103.4% and 99.63% and 101% and 91.35% and 89.5% and 90.53% and 84.89% and 81.49% and 79.23% | Gametocyte stage III-IV viability, percentage of control [2, 6]: 87.57% and 87.36% and 83.7% and 97.18% and 90.82% and 86.32% and 9.91% and 5.752% and 9.494% and 21.99% and 34.89% and 34.32% | viability at 1.5625 µM ([2]; Plasmodium falciparum, read-out: Gametocyte stage III-IV viability, percentage of control, 1.562500000 uM, 48 h, replicate values, source data Fig. 2C): 94.6% | viability at 3.125 µM ([2]; Plasmodium falciparum, read-out: Gametocyte stage III-IV viability, percentage of control, 3.125000000 uM, 48 h, replicate values, source data Fig. 2C): 94.6% | viability at 6.25 µM ([2]; Plasmodium falciparum, read-out: Gametocyte stage III-IV viability, percentage of control, 6.250000000 uM, 48 h, replicate values, source data Fig. 2C): 98.6% | viability at 12.5 µM ([2]; Plasmodium falciparum, read-out: Gametocyte stage III-IV viability, percentage of control, 12.500000000 uM, 48 h, replicate values, source data Fig. 2C): 99.8% | viability at 25 µM ([2]; Plasmodium falciparum, read-out: Gametocyte stage III-IV viability, percentage of control, 25.000000000 uM, 48 h, replicate values, source data Fig. 2C): 92.6% | IC50 ([2]; Plasmodium falciparum, read-out: IC50, P. falciparum gametocyte stage III-IV inhibition, 48 h): > 100 µM | Huh7 viability, dose-response data points (Figure 3F) ([3]; 0.015241580 uM, listed as HJB8a53, 0.0152416 µM): 105.5 and 101.4 and 96.09 and 69.59 and 87 and 84.06 and 99.27 and 98.63 and 104.2 | Huh7 viability, dose-response data points (Figure 3F) ([3]; 0.045724740 uM, listed as HJB8a53, 0.0457247 µM): 109.3 and 93.77 and 96.82 and 77.36 and 91.83 and 83.31 and 95.97 and 106.5 and 102.9 | Huh7 viability, dose-response data points (Figure 3F) ([3]; 0.137174210 uM, listed as HJB8a53, 0.137174 µM): 96.08 and 92.35 and 97.06 and 75.41 and 90.39 and 89.79 and 95.73 and 112.9 and 104.7 | Huh7 viability, dose-response data points (Figure 3F) ([3]; 0.411522630 uM, listed as HJB8a53, 0.411523 µM): 96.93 and 97.72 and 96.92 and 63.65 and 105.3 and 104.5 and 106.5 and 105.9 and 105.2 | Huh7 viability, dose-response data points (Figure 3F) ([3]; 1.234567900 uM, listed as HJB8a53, 1.23457 µM): 100.4 and 99.21 and 88.68 and 67.97 and 84.85 and 96.13 and 101.8 and 95.29 and 104.3 | Huh7 viability, dose-response data points (Figure 3F) ([3]; 3.703703700 uM, listed as HJB8a53, 3.7037 µM): 100.3 and 96.61 and 91.24 and 63.53 and 95.92 and 87.81 and 99.75 and 109.9 and 102.3 | Huh7 viability, dose-response data points (Figure 3F) ([3]; 11.111111100 uM, listed as HJB8a53, 11.1111 µM): 99.33 and 105.1 and 91.64 and 77.62 and 94.71 and 84.32 and 94.43 and 111.6 and 102.6 | Huh7 viability, dose-response data points (Figure 3F) ([3]; 33.333333300 uM, listed as HJB8a53, 33.3333 µM): 96.9 and 100.5 and 93.64 and 75.36 and 80.99 and 87.75 and 88.68 and 89.18 and 95.7 | Huh7 viability, dose-response data points (Figure 3F) [3, 6]: 79.4 and 72.92 and 76.08 and 55.81 and 65.46 and 66.75 and 56.01 and 61.1 and 53.13 | Cytotoxicity to human hepatoma cells ([3]; 48 h, up to 100 µM): only modest cytotoxicity at high concentrations (>30 µM) | IC50 ([3]; Homo sapiens, Huh-7, 48 h, read-out: IC50, human hepatoma inhibition (viability)): > 100 µM
